Measured values published in US6339082B1, “Tricyclic compounds, preparation method and said method intermediates, application as medicines and pharmaceutical compositions containing same” (Aventis Pharma S.A., priority 1997, dated 2002).

target: human αvβ3 receptor (Homo sapiens, UniProt P05106+P06756); test: Bond displacement Vitronectin/Vitronectin Receptor (αvβ3), binding competition test Vn/VR; conditions: human vitronectin coated plates, 3 hours at ambient temperature
Description: 1—Study by the Products of the Invention of the Bond Displacement: Vitronectin/Vitronectin Receptor (αvβ3) 96-well MaxiSorp plates are coated overnight at 4° C., with 100 μl of human Vitronectin (cf Yatohgo et al. Cell., Structure and fraction 13: 281-292 (1988)) at 2 μg/ml, (Dilution in coating buffer).
The next day, the wells are emptied and the ligands (Vitronectin) are then fixed (see fixation buffer) for 1 hour at ambient temperature under gentle agitation.
The wells are washed six times (see washing buffer), then the following are added per well and in this order:
40 μl of incubation buffer, 10 μl of the dilution of the product to be tested, (the products are diluted in a 50/50 mixture of DMSO—H2O) 50 μl of human αvβ3 receptor (cf Pytela et al. Methods Enzymol (1987)144:475) (dilution in incubation buffer, adapted according to the batch of receptor and according to the ligand).
The ligand, the human αvβ3 receptor and the products to be studied are incubated for 3 hours at ambient temperature under gentle agitation.
The wells are again washed six times, then incubated for 2 hours at ambient temperature under gentle agitation, in the presence of 100 μl of 4B12-HRP antibody, anti-receptor coupled to a peroxidase (the 4B12-HRP antibody is diluted in incubation buffer. The dilution is adapted according to the batch of receptor).
The wells are then washed six times before measurement of ligand-receptor bond is carried out using a peroxidase developer kit (TMB Microwell Peroxidase Substrate System Kirkegaard: Ref. cat. 50-76-00).
This kit contains a flask A of substrate (3,3′,5,5′-tetramethylbenzidine at 0.4 g/l) and a flask B (H2O2 at 0.02% in Citrate/Citric acid buffer). Extemporaneously, one volume of A is mixture with one volume of B, then the reaction mixture is distributed at the rate of 100 μl/well. The enzymatic reaction develops in 12′ for Vitronectin/αvβ3, then its development is stopped by the addition of 100 μl of 1M phosphoric acid.
The optical density is measured at 450 nm. […]
coating buffer: 0.05 M Carbonate, NaOH pH 9.6 fixation buffer: PBS containing 0.5% of BSA (pH 7.4) washing buffer: PBS containing 0.05% of Tween 20 (pH 7.4)
Expression of the results:
The following curve is plotted: the percentage of bond of human vitronectin as a function of the logarithm of the concentration of each product tested.
For each product the IC50 is determined according to the following formula:
BO=Maximum bond in the absence of any product Bmin=Minimum bond in the presence of the highest concentration of product.

IC50 [nM]	SMILES
16	COc1c(C(=O)NCC(NC(=O)OCc2ccccc2)C(=O)O)cc2c(c1OC)C1=C(CCC1)C(=NNC1=NCCN1)CC2 (racemic) [EX. 1, 3-[[[4-[(4,5-dihydro-1H-imidazol-2-yl)hydrazono]-9,10-dimethoxy-1,2,3,4,5,6-hexahydro-8-benz[e]azulenyl]-carbonyl]amino]—N-[(phenylmethoxy)carbonyl]-DL-alanine]
19	COc1c(C(=O)NCC(NC(=O)OCc2ccccc2)C(=O)O)cc2c(c1OC)C1=C(CCC1)C(=NNC1=NCCCN1)CC2 (racemic) [EX. 2, 3-[[[9,10-dimethoxy-1,2,3,4,5,6-hexahydro-4-[(1,4,5,6-tetrahydropyrimidin-2-yl)]-hydrazono]-8-benz[e]azulenyl]carbonyl]amino]-N-[(phenylmethoxy)carbonyl]-DL-alanine]
100	O=C(O)CC(NC(=O)c1ccc2c(c1)CCC(=NNC1=NCCN1)C1=C2CCC1)c1cccnc1 (stereo not drawn) [EX. 3, beta-[[[4-[(4,5-dihydro-1H-imidazol-2-yl) hydrazono]-1,2,3,4,5,6-hexahydro-8-benz[e]azulenyl]-carbonyl]-amino]-3-pyridine-3-yl-propanoic acid]
62	O=C(O)CC(NC(=O)c1ccc2c(c1)CCC(=NNC1=NCCN1)C1=C2CCC1)c1ccc2c(c1)OCO2 (stereo not shown) [EX. 4]
